Results as given in article PMC11923649, “Novel C-2 Aromatic Heterocycle-Substituted Triterpenoids Inhibit Hedgehog Signaling in GLI1 Overexpression Cancer Cells” (ACS Omega, 2025).

Columns and labels:
[1] = test system: A549 (lung adenocarcinoma); assay: MTS cytotoxicity assay, 72 h, A549; assay type: cell-based; conditions: Homo sapiens, A549, 72 h
Description: (§1) Based on the preliminary results and tests of a larger library of known triterpenoids, a small set of 2-substituted lupane and 18α-oleanane derivatives was designed and synthesized. As the first step, the cytotoxic activity of the synthesized derivatives was assessed using an MTS assay following 72 h of treatment (Table 1). Selected cell lines A549 (lung adenocarcinoma) and DU-145 (prostate cancer) are both dependent on Hh signaling. In addition, K562 (chronic myelogenous leukemia) was included as a cell line sensitive to Hh inhibitors[32] and a type of hematological malignancy with active Hh signaling.[33] MRC-5 lung fibroblasts and BJ human skin fibroblasts cell lines were used to evaluate the toxicity against nontumor cells. Compounds were also tested using the standard panel of other cancer cell lines, as described in our earlier work (Table 1).[27]
(§2) The human prostate tumor-derived cell line DU145 was obtained from ATCC (American Type Culture Collection) and cultured in RPMI 1640 (Roswell Park Memorial Institute) medium supplemented with 10% (v/v) fetal bovine serum (FBS). Human prostate tumor-derived LNCaP cells were obtained from ATCC and cultured in RPMI 1640 medium supplemented with 10% FBS. The human nonsmall cell lung carcinoma (NSCLC)-derived cell line HOP-62 was obtained from the DSMZ (German Collection of Microorganisms and Cell Cultures) and cultured in RPMI 1640 medium supplemented with 10% FBS. The human nonsmall cell lung carcinoma-derived cell line NCI-H322 was obtained from ECACC (European Collection of Authenticated Cell Cultures) and cultured in RPMI 1640 medium supplemented with 10% FBS. The human nonsmall cell lung carcinoma-derived cell line NCI-H522 was obtained from ATCC and cultured in RPMI 1640 medium supplemented with 10% FBS. The human lung tumor-derived cell line A549 was obtained from ATCC and cultured in Dulbecco’s Modified Eagle’s Medium (DMEM) supplemented with 10% FBS. The human medulloblastoma-derived cell line DAOY was obtained from ATCC and cultured in Eagle’s Minimum Essential Medium (EMEM) supplemented with 10% FBS. The human glioblastoma-derived cell line T98G was obtained from ATCC and cultured in EMEM medium supplemented with 10% FBS, 1 mmol/L sodium pyruvate, and 1 mmol/L nonessential amino acid mixture. All the above-mentioned cell lines were cultured at 37 °C in an atmosphere of 5% CO2 with 95% humidity. The cytotoxicity MTS assays were performed using MTS (3-(4,5-dimethylthiazol-2-yl)-5-(3-carboxymethoxyphenyl)-2-(4-sulfophenyl)-2H-tetrazolium) tetrazolium salt. Briefly, cells were seeded in a 384-well transparent plate in a volume of 25 μL and a concentration of 15,000 cells/mL (DU145, LNCaP, HOP-62, A549, DAOY, T98G) or 30,000 cells/mL (NCI-H322, NCI-H522). The next day, cells were exposed to compounds in a concentration range of 50–0.0975 μmol/L (dilution factor 2) and cultured in the presence of the compounds for 72 h. After 72 h, 5 μL of MTS/phenazine methosulfate solution was pipetted into each well and incubation continued for 1–4 h. Finally, the absorbance at 490 nm was measured using an EnVision multifunctional modular reader (PerkinElmer). The IC50 value was determined using Dotmatics software.

DU-145 (prostate cancer) = assay: MTS cytotoxicity assay, 72 h, DU-145; assay type: cell-based, human
Description: as §1, §2

[2] = test system: K562 (chronic myelogenous leukemia); assay: MTS cytotoxicity assay, 72 h, K562; assay type: cell-based; conditions: Homo sapiens
Description: as §1, §2

K562-TAX = assay: MTS cytotoxicity assay, 72 h, K562-TAX; assay type: cell-based
Description: as §1, §2

HCT 116 = assay: MTS cytotoxicity assay, 72 h, HCT 116; assay type: cell-based; conditions: Homo sapiens, HCT-116, 72 h
Description: as §1, §2

HCT116 p53–/– = assay: MTS cytotoxicity assay, 72 h, HCT116 p53–/–; assay type: cell-based; conditions: Homo sapiens, HCT-116, 72 h
Description: as §1, §2

U2OS = assay: MTS cytotoxicity assay, 72 h, U2OS; assay type: cell-based; conditions: Homo sapiens
Description: as §1, §2

CCRF-CEM = assay: MTS cytotoxicity assay, 72 h, CCRF-CEM; assay type: cell-based; conditions: for IC50: Homo sapiens, CCRF-CEM, 72 h, MTS
Description: as §1, §2

CEM-DNR = assay: MTS cytotoxicity assay, 72 h, CEM-DNR; assay type: cell-based; conditions: Homo sapiens
Description: as §1, with “1).[27] […]” for “1).[27]”

[3] = test system: BJ human skin fibroblasts; assay: MTS cytotoxicity assay, 72 h, BJ fibroblasts; assay type: cell-based; conditions: Homo sapiens, Skin fibroblast, normal fibroblasts
Description: as §1, §2

MRC-5 lung fibroblasts = assay: MTS cytotoxicity assay, 72 h, MRC-5 fibroblasts; assay type: cell-based, human; conditions: Homo sapiens, MRC5, 72 h, normal fibroblasts
Description: as §1, §2

[4] = Homo sapiens, DU-145, 72 h, Table 1
[5] = IC50 of CCRF-CEM line vs average of both fibroblasts (BJ and MRC-5), Table 1
[6] = Homo sapiens, DU-145, 72 h, full Table S1
[7] = CCRF-CEM vs average of BJ and MRC-5, full Table S1

Row | Structure (SMILES) | IC50 (K562-TAX; full Table S1) | IC50 ([1]; full Table S1) | IC50 (DU-145 (prostate cancer); [6]) | IC50 ([2]; full Table S1) | IC50 (HCT 116; full Table S1) | IC50 (HCT116 p53–/–; full Table S1) | IC50 (U2OS; full Table S1) | SI (selectivity index) (CCRF-CEM; [7]) | IC50 (CCRF-CEM; full Table S1) | IC50 (CEM-DNR; full Table S1) | IC50 ([3]; full Table S1) | IC50 (MRC-5 lung fibroblasts; full Table S1) | also measured
1 | C=C(C)[C@@H]1CC[C@]2(C(=O)O)CC[C@]3(C)[C@H](CC[C@@H]4[C@@]5(C)CC[C@H](O)C(C)(C)[C@@H]5CC[C@]43C)[C@@H]12 [Betulinic acid 5, betulinic acid, reference compound] | 14.1 µM | – | – | – | – | – | – | – | – | – | – | – | IC50 ([1]; Table 1): 9.4 µM; IC50 (DU-145 (prostate cancer); [4]): 9.6 µM; IC50 ([2]; Table 1): 4.3 µM; IC50 (K562-TAX; Table 1): 14 µM; IC50 (HCT 116; Table 1): 16 µM; IC50 (HCT116 p53–/–; Table 1): 16 µM; IC50 (U2OS; Table 1): 21 µM; IC50 (CCRF-CEM; Table 1): 8.1 µM; SI (selectivity index) (CCRF-CEM; [5]): 3.2; IC50 (CEM-DNR; Table 1): 14 µM; IC50 ([3]; Table 1): 24 µM; IC50 (MRC-5 lung fibroblasts; Table 1): 28 µM
2 | CC1(C)C(=O)C(c2ccco2)=C[C@@]2(C)C1CC[C@]1(C)C2CCC2C3[C@H]4OC[C@@]3(CCC4(C)C)CC[C@]21C (stereo partly drawn) [Compound 4a, 2-(Furan-2-yl)-19β,28-epoxyolean-1-en-3-one] | > 50 µM | > 50 µM | > 50 µM | > 50 µM | > 50 µM | > 50 µM | > 50 µM | > 1.0 | > 50 µM | > 50 µM | > 50 µM | > 50 µM | –
3 | CC1(C)C(=O)C(c2ccoc2)=C[C@@]2(C)C1CC[C@]1(C)C2CCC2C3[C@H]4OC[C@@]3(CCC4(C)C)CC[C@]21C (stereo partly drawn) [Compound 4b, 2-(Furan-3-yl)-19β,28-epoxyolean-1-en-3-one] | > 50 µM | > 50 µM | > 50 µM | > 50 µM | > 50 µM | > 50 µM | > 50 µM | > 1.0 | > 50 µM | > 50 µM | > 50 µM | > 50 µM | –
4 | CC1(C)C(=O)C(c2cccs2)=C[C@@]2(C)C1CC[C@]1(C)C2CCC2C3[C@H]4OC[C@@]3(CCC4(C)C)CC[C@]21C (stereo partly drawn) [Compound 4c, 2-(Thiophene-2-yl)-19β,28-epoxyolean-1-en-3-one] | > 50 µM | > 50 µM | > 50 µM | > 50 µM | > 50 µM | > 50 µM | > 50 µM | > 1.0 | > 50 µM | > 50 µM | > 50 µM | > 50 µM | –
5 | CC1(C)C(=O)C(c2ccsc2)=C[C@@]2(C)C1CC[C@]1(C)C2CCC2C3[C@H]4OC[C@@]3(CCC4(C)C)CC[C@]21C (stereo partly drawn) [Compound 4d, 2-(Thiophene-3-yl)-19β,28-epoxyolean-1-en-3-one] | > 50 µM | > 50 µM | > 50 µM | > 50 µM | > 50 µM | > 50 µM | > 50 µM | > 1.0 | > 50 µM | > 50 µM | > 50 µM | > 50 µM | –
6 | CC1(C)C(=O)C(c2ccc(Cl)s2)=C[C@@]2(C)C1CC[C@]1(C)C2CCC2C3[C@H]4OC[C@@]3(CCC4(C)C)CC[C@]21C (stereo partly drawn) [Compound 4e, 2-(5-Chlorothiophen-2-yl)-19β,28-epoxyolean-1-en-3-one] | > 50 µM | > 50 µM | > 50 µM | > 50 µM | > 50 µM | > 50 µM | > 50 µM | > 1.0 | > 50 µM | > 50 µM | > 50 µM | > 50 µM | –
7 | CC1(C)C(=O)C(c2cccnc2)=C[C@@]2(C)C1CC[C@]1(C)C2CCC2C3[C@H]4OC[C@@]3(CCC4(C)C)CC[C@]21C (stereo partly drawn) [Compound 4g, 2-(Pyridin-3-yl)-19β,28-epoxyolean-1-en-3-one] | – | – | 43.3 µM | – | – | – | – | – | 25.4 µM | 15.5 µM | – | – | IC50 ([1]; Table 1): > 50 µM; IC50 (DU-145 (prostate cancer); [4]): 43 µM; IC50 ([2]; Table 1): > 50 µM; IC50 (K562-TAX; Table 1): 19 µM; IC50 (HCT 116; Table 1): > 50 µM; IC50 (HCT116 p53–/–; Table 1): > 50 µM; IC50 (U2OS; Table 1): > 50 µM; IC50 (CCRF-CEM; Table 1): 25 µM; SI (selectivity index) (CCRF-CEM; [5]): >2.0; IC50 (CEM-DNR; Table 1): 16 µM; IC50 ([3]; Table 1): > 50 µM; IC50 (MRC-5 lung fibroblasts; Table 1): > 50 µM
8 | CN(C)c1ccccc1CN1CCCN(Cc2ccccc2N(C)C)C1c1ccncc1 [GANT-61, reference compound] | – | – | – | – | – | – | – | – | – | – | – | – | IC50 (DU-145 (prostate cancer); Table 1): > 50 µM
